Here are results for three molecules from ChEMBL document CHEMBL3621204, “Dual biological functions of the apoptotic activity and anti-inflammatory effect by alcyonolide congeners from the Okinawan soft coral, Cespitularia sp” (Bioorg Med Chem Lett, 2015).

Data set [1] has as its system HCT-116. Nature of the data set: Cytotoxicity against human HCT116 cells. It is filed as functional, cell-based.
In data set [2] the test system is HCT-116. As to the kind of experiment: Induction of apoptosis in human HCT116 cells assessed as activation of caspase 3/7 at 2.5 to 20 uM after 2 hrs 30 mins by luciferase reporter assay. It is filed as functional, cell-based. (A reporter such as luciferase makes a cellular process visible.)
Data set [3] deals with HCT-116. Nature of the data set: Induction of apoptosis in human HCT116 cells assessed as nuclear condensation at 100 uM by fluorescence assay. It is filed as functional, cell-based.
For data set [4], the system named is RAW264.7. Nature of the data set: Antiinflammatory activity in mouse RAW264.7 cells assessed as inhibition in LPS-stimulated nitric oxide production. It is filed as functional, cell-based.
Data set [5] has as its system RAW264.7. As to the kind of experiment: Cytotoxicity against LPS/IFN-gamma stimulated mouse RAW264.7 cells assessed as cell survival at 2 to 8 uM by MTT assay. The data set is classed as cell-based. The settings on record: raw264.7, 8 µM. Background: Tetrazolium assays rely on reduction of a dye to a coloured formazan, in cell work by metabolically active cells.
Data set [6] deals with RAW264.7. As to the kind of experiment: Anti-inflammatory activity in mouse RAW264.7 cells assessed as inhibition of LPS/IFN-gamma-stimulated iNOS mRNA expression by RT-PCR analysis. It is filed as functional, cell-based.
Data set [7] has as its system RAW264.7. Nature of the data set: Anti-inflammatory activity in mouse RAW264.7 cells assessed as inhibition of LPS/IFN-gamma-stimulated iNOS mRNA expression at 2 uM by RT-PCR analysis (reference value: 28.91 ng/uL). The data set is classed as functional.
For data set [8], the system named is RAW264.7. As to the kind of experiment: Anti-inflammatory activity in mouse RAW264.7 cells assessed as inhibition of LPS/IFN-gamma-stimulated iNOS mRNA expression at 4 uM by RT-PCR analysis (reference value: 28.91 ng/uL). The data set is classed as functional.
The subject of data set [9] is RAW264.7. As to the kind of experiment: Anti-inflammatory activity in mouse RAW264.7 cells assessed as inhibition of LPS/IFN-gamma-stimulated iNOS mRNA expression at 8 uM by RT-PCR analysis (reference value: 28.91 ng/uL). It is filed as functional.
The subject of data set [10] is RAW264.7. Nature of the data set: Anti-inflammatory activity in mouse RAW264.7 cells assessed as inhibition of LPS/IFN-gamma-stimulated COX2 mRNA expression by RT-PCR analysis. The data set is classed as functional, cell-based.
Data set [11] relates to RAW264.7. Nature of the data set: Anti-inflammatory activity in mouse RAW264.7 cells assessed as inhibition of LPS/IFN-gamma-stimulated COX2 mRNA expression at 2 uM by RT-PCR analysis (reference value: 54.51 ng/uL). It is filed as functional.
The test system of data set [12] is RAW264.7. As to the kind of experiment: Anti-inflammatory activity in mouse RAW264.7 cells assessed as inhibition of LPS/IFN-gamma-stimulated COX2 mRNA expression at 4 uM by RT-PCR analysis (reference value: 54.51 ng/uL). It is filed as functional.
The test system of data set [13] is RAW264.7. As to the kind of experiment: Anti-inflammatory activity in mouse RAW264.7 cells assessed as inhibition of LPS/IFN-gamma-stimulated COX2 mRNA expression at 8 uM by RT-PCR analysis (reference value: 54.51 ng/uL). The data set is classed as functional.

What is called IC50 is the concentration that inhibits the measured activity by half. Low values mean inhibition by little substance, high ones a need for much substance.

Calls of active or inactive are those of the source. No cut-off for these calls is given here.

In data set [1], `C=CC(=C)[C@@H]1[C@@H](OC(C)=O)OC=C2[C@H](CC=C(C)C)OC(=O)C[C@H]21` had an IC50 of 6.04 µM. For the same molecule, the outcome in data set [2] and in data set [3] was Active. In addition, the inhibition result in data set [4], in [6] and in [10] was “Dose-dependent effect” in each case. Moreover, the Activity result was “Non-toxic” in data set [5]; 20.66 ng/µL in data set [7]; 12.44 ng/µL in data set [8]; 6.58 ng/µL in data set [9]; 37.1 ng/µL in data set [11]; 31.77 ng/µL in [12]. Further, the Activity in data set [13] amounted to 15.93 ng/µL.

On to `O=C1c2c(O)cc(O)cc2O[C@H](c2ccc(O)cc2)[C@H]1O`, for which the inhibition result in data set [4] was “Dose-dependent effect”.

On to `C=C(CCCC(C)=O)[C@@H]1[C@@H](OC(C)=O)OC=C2[C@H](CC=C(C)C)OC(=O)C[C@H]21`, for which, in data set [1], half-maximal inhibition (IC50) required 5.85 µM. The outcome in data set [2] and in data set [3] was Active. In addition, the inhibition result in [4], in data set [6] and in data set [10] was “Dose-dependent effect” each time. The Activity entry in [5] was “Non-toxic”; in [7], 24.62 ng/µL; in data set [8], 10.94 ng/µL; in data set [9] it was 8.25 ng/µL; in data set [11], 37.36 ng/µL; in [12], 21.48 ng/µL. The Activity in data set [13] was determined as 13.75 ng/µL.
